In patent publication US20100316729A1, “Use of Hyperbaric Conditions to Provide Neuroprotection” (AIR PRODUCTS AND CHEMICALS, INC., priority 2007, published 2010):
Entries after “also recorded” stand apart in the source; their conditions may differ.

Tested on: organotypic hippocampal slice cultures (focal trauma to the CA1 region)
Test: in vitro model of traumatic brain injury: focal mechanical trauma to organotypic hippocampal slices, injury quantified by propidium iodide fluorescence
Assay type: cell-based, C57/BL6 mice
Conditions: for effect of added pressure of gas on development of total injury, highest added pressure / effect of added pressure of gas on development of total injury, low added pressures: gas added to 1 atm of 95% air/5% CO2, FIG. 4 / FIG. 5; for effect of added pressure of gas on development of total injury, highest added pressure: highest pressure tested (about 2 atm added, about 3 atm total); for effect of added pressure of gas on development of total injury, low added pressures: low added pressures (up to about 1 atm); for predicted level of normalized injury after 72 hours / observed degree of normalized injury after 72 hours: normobaric; for predicted level of normalized injury after 72 hours: 75% test gas replacing nitrogen, calculated from dashed lines of FIG. 4 / FIG. 5; for observed degree of normalized injury after 72 hours: 75% test gas/20% oxygen/5% CO2 (test gas substituted for nitrogen), 37° C., injury relative to control (75% nitrogen, 1 atm, 72 h) = 1
Excerpt: The properties of xenon and other gases were investigated in an in vitro model of traumatic brain injury (as described below in greater detail, under the heading “Example”). The model chosen involved creating a focal mechanical trauma centered on the CA1 region of cultured hippocampal brain slices, and assessing neurological injury using propidium iodide staining. A small solenoid retains a stylus 5 mm above a cultured hippocampal slice which is positioned using a micromanipulator. A fiber-optic light source illuminates the slice from beneath. As shown in (B) the stylus is constrained in a glass capillary and positioned just above the CA1 region of the hippocampus.
Organotypic hippocampal slice cultures were prepared as reported by Stoppini L, et al in “A simple method for organotypic cultures of nervous tissue” J Neurosci Methods 1991; 37:173-82, subject to some modifications. Briefly, brains were removed from seven-day-old C57/BL6 mice pups (Harlan UK Ltd., Bicester, Oxfordshire, UK) and placed in ice-cold “preparation” medium. The preparation medium contained Gey's balanced salt solution and 5 mg ml^−1 D-glucose (BDH Chemicals Ltd., Poole, Dorset, UK). The hippocampi were removed from the brains and 400 μm thick transverse slices were prepared using a McIllwain tissue chopper. Slices were transferred into ice-cold preparation medium, gently separated and then placed onto tissue culture inserts (Millicell-CM, Millipore Corporation, Billerica, Mass.) which were inserted into a six-well tissue culture plate. The wells contained “growth” medium which consisted of 50% Minimal Essential Media Eagle, 25% Hank's balanced salt solution, 25% inactivated horse serum, 2 mM L-glutamine, 5 mg ml^−1 D-glucose (BDH) and 1% antibiotic-antimycotic suspension. Slices were incubated at 37° C. in a 95% air/5% CO2 humidified atmosphere. The growth medium was changed every three days. Experiments were carried out after 14 days in culture.
After the hippocampal slices had been in culture for 14 days, the growth medium was changed to “experimental” medium. The experimental medium was serum-free and consisted of 75% Minimal Essential Media Eagle, 25% Hank's balanced salt solution, 2 mM L-glutamine, 5 mg ml^−1 D-glucose, 1% antibiotic-antimycotic suspension and 4.5 μM propidium iodide.
The trauma to the slices was produced with a specially designed apparatus (FIG. 1) which was based on published descriptions (Adamchik Y, et al “Methods to induce primary and secondary traumatic damage in organotypic hippocampal slice cultures” Brain Res Brain Res Protoc 2000; 5:153-8 and Adembri C, et al “Erythropoietin attenuates post-traumatic injury in organotypic hippocampal slices” J Neurotrauma 2004; 21:[…], 21). Under a stereomicroscope a stylus was positioned 5 mm above the CA1 region of the hippocampus using a three-axis micromanipulator. The stylus dropped onto the slice with an impact of 3.5 μJ when power to a small electromagnet was switched off. […] The distal part of the stylus was smooth and rounded in order to prevent perforation of the slice and the impact produced a focal injury with a diameter of 750±17 μm (mean±SD).
After traumatizing the CA1 region, the culture trays were transferred to a small pressure chamber which contained a high-speed fan for rapid gas mixing. The pressure chamber was capable of maintaining a constant pressure of up to six atmospheres for several days. The pressure chamber was housed in an incubator which was set at 37° C. for normothermic experiments or 32° C. for experiments at moderate hypothermia. Subsequently, the pressure chamber (gas volume 0.925 litre) was flushed with humidified control gas (95% air and 5% CO2) for 5 min at 5 litres min^−1 which ensures better than 99.99% gas replacement. After flushing, the pressure chamber was sealed, and slices under these conditions were considered to be the “injury controls” (75% nitrogen/20% oxygen/5% CO2). […]

SMILES | effect of added pressure of gas on development of total injury, highest added pressure | effect of added pressure of gas on development of total injury, low added pressures | predicted level of normalized injury after 72 hours | observed degree of normalized injury after 72 hours | theoretical effect of increased gas level per se (effects of helium/pressure subtracted) (dashed line in FIG. 4, independent of the effects of pressure) | injury outcome with added nitrogen compared with added helium (nitrogen substituted for helium as added gas, all pressures 0.25-2 atm added, FIG. 4)
[Xe] [xenon] | toxicity; also recorded: significant neurotoxicity | marked neuroprotection | 0.59 | 0.50±0.04 |  | 
[He] [helium] | came back close to control levels | potent neuroprotection; also recorded: injury decreased | 0.75 | 0.67±0.10 |  | 
N#N [nitrogen] |  |  |  |  | detrimental in a fashion that is roughly linear with increasing amounts | significantly worse injury outcome
